# Tests used:
# [1] = tested on: neuropathic mechanical hyperalgesia; experiment: model of neuropathic pain in the guinea pig (partial sciatic nerve ligation, mechanical hyperalgesia); format: in vivo, Dunkin Hartley guinea pigs; settings: paw withdrawal threshold, up to 6 hours
# Source text: The direct activity of the compound of formula I in the treatment of neuropathic pain is evidenced, for example, in the following model of neuropathic pain in the guinea pig: Dunkin Hartley guinea pigs are anaesthetised with enflurane (in N2O:O2 for guinea pigs) and the left sciatic nerve is exposed and partially ligated with thread. This procedure produces a mechanical hyperalgesia, which develops within 2-3 days and is maintained for at least 4 weeks. Paw withdrawal thresholds to a pressure stimulus are measured using an analgesymeter. Mechanical thresholds are taken on both the ipsilateral (ligated) and contralateral (unligated) paw prior to and then up to 6 hours following drug or vehicule administration. Reversal of hyperalgesia at each time point is calculated. Groups of 6 animals are used. Statistical analysis is carried out on withdrawal threshold readings using ANOVA followed by Tukey's HSD test.
# [2] = tested on: chronic pain in patients with diabetic neuropathy; experiment: clinical trials in chronic pain in patients with diabetic neuropathy; format: in vivo; settings: Maintenance and Follow-up Periods
# Source text: The activity of the compound of formula I in the treatment of neuropathic pain and related disorders can be confirmed in clinical trials evaluating the efficacy of a compound in treating chronic pain in patients with diabetic neuropathy.
# GABA turnover = GABA turnover determination after maximal inhibition of GABA-T; format: in vivo; settings: doses of 30 to about 300 mg/kg p.o.
# Source text: The activity of the compound of formula I on GABA turnover is evidenced in the following experiment: The determination of GABA turnover Is based on the linear increase in GABA level observed after the maximal inhibition of gamma-aminobutyric acid transaminase (GABA-T). The values obtained with this approach for the rate of GABA synthesis are independent of the inhibitors used and within the catalytic capacity of the enzymes involved in the GABA shunt.
# [3] = tested on: social withdrawal of intruder mice; experiment: social withdrawal of intruder mice; format: in vivo; settings: dose range of 1 to about 100 mg/kg p.o.
# Source text: The activity of the compound of formula I in the treatment of affective and attention disorders treatment is also evidenced, for example, in tests suitable for detecting drugs having potential behavioural desinhibitory and/or sociotropic effects which are thought to be relevant for recovery from social withdrawal, a cardinal feature of depression and related psychiatric conditions. For instance, drug effects on social withdrawal of intruder mice can be evaluated by using the basic method as described in Triangle, 1982, 21:95-105 and J. Clin. Psychiatry, 1994, 55:9 (suppl. B) 4-7.
smiles,measurement,setting,value
"NC(=O)N1c2ccccc2CC(O)c2ccccc21 (centres unmarked) [compound of formula I, 10-hydroxy-10,11-dihydro-carbamazepine]",reversal of neuropathic mechanical hyperalgesia,[1]; 3 to about 100 mg/kg s.c.,significantly and dose-dependently reverses
same,reversal of neuropathic mechanical hyperalgesia,[1]; 10 to about 100 mg/kg p.o.,significantly and dose-dependently reverses
same,pain severity ratings relative to placebo,[2],decrease pain severity ratings
same,GABA turnover rate,GABA turnover,dose-dependently inhibits
same,social investigation in the treated mouse,[3],increases social investigation

# From US20050004102A1, “Monohydroxycarbamazepine for use in the preparation of a medicament for the treatment of affective and attention disorder and neuropathic pain” (priority 2001, published 2005)
